Data: US20210315893A1 (Galapagos NV, priority 2017, published 2021)

Legend:
[1] = target: T1, human GPCR sphingosine 1-phosphate receptor 5 (Homo sapiens, UniProt Q9H228); experiment: S1PR5 selectivity Ca2+ flux assay (antagonist readout); format: cell-based; conditions: CHO cells overexpressing human S1PR5 and Gq, agonist at EC80 (20 nM), read-out: S1P5 EC50 (nM), S1P5 antagonist EC50
T1 construct: host or cells: CHO
Summary of the method: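 Antagonist readout: after 15 min compound preincubation at 37° C, human S1PR5/Gq CHO cells loaded with Fluo 8 dye received an EC80 challenge of S1PR5-specific agonist, and fluorescence was recorded for 3 min. Maximal-over-background ratios, normalized as % inhibition, gave IC50 by logistic fit.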

[2] = system: HFL-1 cells; experiment: IL8 assay in the presence of Human Serum Albumin; conditions: HFL1, read-out: HSA IL8 EC50
[3] = target: T2, S1PR2 (Homo sapiens, UniProt O95136); experiment: S1PR2 binding assay (competition with radioactively labeled S1P, SpA); conditions: membranes from stable cell line over expressing S1PR2, SpA beads; read-out: S1P2 EC50 (nM), S1PR2 binding EC50
T2 construct: expressed in transfected cells
Summary of the method: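 Scintillation proximity read-out after 2 h room-temperature incubation of compound, [3H]S1P and S1PR2-overexpressing cell membranes on WGA-coated beads. Buffer: 20 mM Tris pH 7.5, 100 mM NaCl, 10 mM MgCl2, 1 mM Na3VO4, 0.4% fatty-acid-free BSA; plates counted immediately after centrifugation.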

[4] = target: T3, human GPCR sphingosine 1-phosphate receptor 2 (Homo sapiens, UniProt O95136); experiment: S1PR2 antagonist Ca2+ flux assay; format: cell-based; conditions: antagonist mode, CHO-S1PR2 cells, S1P at EC80, Ca2+ fluorescence; read-out: S1P2 EC50 (nM), S1P2 antagonist EC50
T3 construct: host or cells: CHO
Summary of the method: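 Antagonist mode: 15 min after compound addition, S1P (EC80) stimulates Fluo8-loaded, 1 h-starved CHO-S1PR2 cells, Ca2+ read over 3 min; a prior 3-min read checks compound agonism. EC50 from peak/baseline fluorescence ratio, normalised versus vehicle and S1P EC50 (antagonist) or EC100 (agonist).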

[5] = target: T4, human GPCR sphingosine 1-phosphate receptor 1 (Homo sapiens, UniProt P21453); experiment: S1PR1 selectivity Ca2+ flux assay (antagonist readout); format: cell-based; conditions: antagonist readout, CHO cells overexpressing human S1PR1 and Gq, S1P at EC80 (6 nM); read-out: S1P1 EC50 (nM), S1P1 antagonist EC50
T4 construct: host or cells: CHO
Summary of the method: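 Antagonist mode: S1P challenge follows 15 min compound preincubation at 37 °C. Cells are CHO stably expressing human S1PR1, serum-starved 1 h (0.1% FAF BSA), loaded with Fluo 8. Peak-over-baseline fluorescence ratio is normalized to positive/negative controls; IC50 from logistic curve fit.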

[6] = system: HFL-1 cells; experiment: IL-8 production assay (S1P induced IL-8); format: cell-based; conditions: Homo sapiens, HFL1; S1P (1 μM) induced IL-8 in HFL-1 cells, starvation medium without HSA; read-out: IL8 EC50
Summary of the method: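 HFL-1 fibroblasts in low-serum medium were pretreated 1 h with a 10-point 1/3 series of compound starting at 30 μM (0.3% DMSO).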

T4 sequence (P21453 whole entry): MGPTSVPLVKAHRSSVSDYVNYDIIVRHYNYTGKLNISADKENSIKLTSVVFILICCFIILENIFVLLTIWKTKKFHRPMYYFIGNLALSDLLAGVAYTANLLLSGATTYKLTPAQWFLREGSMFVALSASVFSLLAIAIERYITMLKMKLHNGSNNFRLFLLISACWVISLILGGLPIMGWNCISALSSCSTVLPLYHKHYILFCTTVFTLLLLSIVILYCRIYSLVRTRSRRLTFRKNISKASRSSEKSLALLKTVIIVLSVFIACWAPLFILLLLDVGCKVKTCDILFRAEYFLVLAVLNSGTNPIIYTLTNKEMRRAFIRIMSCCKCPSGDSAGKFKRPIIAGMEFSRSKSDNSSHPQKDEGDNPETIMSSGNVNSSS
T1 sequence (Q9H228 whole entry): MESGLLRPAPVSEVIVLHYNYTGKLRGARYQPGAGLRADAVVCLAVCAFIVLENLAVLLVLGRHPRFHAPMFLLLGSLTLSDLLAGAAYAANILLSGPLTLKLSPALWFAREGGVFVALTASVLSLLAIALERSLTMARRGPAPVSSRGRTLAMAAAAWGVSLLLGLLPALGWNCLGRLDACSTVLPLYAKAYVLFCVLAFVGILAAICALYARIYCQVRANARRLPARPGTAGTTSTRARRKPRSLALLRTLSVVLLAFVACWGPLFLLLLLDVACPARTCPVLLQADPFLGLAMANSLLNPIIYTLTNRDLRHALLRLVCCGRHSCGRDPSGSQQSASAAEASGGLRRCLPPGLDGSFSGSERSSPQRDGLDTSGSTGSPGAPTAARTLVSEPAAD
T2 sequence (O95136 whole entry): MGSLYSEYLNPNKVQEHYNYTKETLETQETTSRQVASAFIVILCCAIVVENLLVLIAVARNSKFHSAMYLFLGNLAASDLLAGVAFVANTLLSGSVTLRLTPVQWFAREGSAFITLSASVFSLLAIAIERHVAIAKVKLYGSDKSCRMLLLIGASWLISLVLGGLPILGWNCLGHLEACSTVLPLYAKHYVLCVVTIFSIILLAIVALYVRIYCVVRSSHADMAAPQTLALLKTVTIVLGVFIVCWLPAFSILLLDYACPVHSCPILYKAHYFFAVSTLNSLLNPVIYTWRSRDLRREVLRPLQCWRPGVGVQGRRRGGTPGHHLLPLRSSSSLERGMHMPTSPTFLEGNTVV
T3 sequence (O95136 whole entry): as above

| SMILES | EC50 [1] [nM] | EC50 [2] [nM] | EC50 [3] [nM] | EC50 [4] [nM] | EC50 [5] [nM] | EC50 [6] [nM] |
| --- | --- | --- | --- | --- | --- | --- |
| C[C@@H]1CN(C(=O)Cn2nc(Cc3nc4cc(OCC(F)F)c(C#N)cc4[nH]3)c3ccccc3c2=O)C[C@H](C)O1 [Compound 177, 6-(2,2-difluoroethoxy)-2-[[3-[2-[(2S,6R)-2,6-dimethylmorpholin-4-yl]-2-oxo-ethyl)-4-oxo-phthalazin-1-yl]methyl]-3H-benzimidazole-5-carbonitrile] | 19800 | 120 | 124 | 57.1 | ≥ 19800 | 18.6 |
| O=C(O)c1cn(Cc2nc3cc(OCC4CC4)c(C(F)(F)F)cc3[nH]2)c2ccccc2c1=O [Compound 106, (1-[[5-(cyclopropyl-methoxy)-6-(trifluoromethyl)-1H-benzimidazol-2-yl]methyl]-4-oxoquinoline-3-carboxylic acid)] | 19800 | 98.9 | 14.1 | 3.45 | 830 | 1.86 |
| N#Cc1cc2[nH]c(Cc3nn(CC4CCCN4CC(=O)O)c(=O)c4ccccc34)nc2cc1OCC(F)F (stereo not drawn) [Compound 70, 2-[2-[[4-[[6-cyano-5-(2,2-difluoroethoxy)-1H-benzimidazol-2-yl]methyl]-1-oxo-phthalazin-2-yl]methyl]pyrrolidin-1-yl]acetic acid] | 19800 | 443 | 2100 | 836 | ≥ 19800 | 251 |
| N#Cc1cc2nn(Cc3nn(CC(=O)NC4CCCC4)c(=O)c4ccccc34)cc2cc1OCC(F)F [Compound 208, 2-[4-[[6-cyano-5-(2,2-difluoroethoxy)indazol-2-yl)methyl]-1-oxo-phthalazin-2-yl]-N-cyclopentyl-acetamide] | 19800 | 3320 | 1510 | 10800 | ≥ 19800 | 9950 |
| CCOc1cc2nc(Cc3nn(CC(=O)O)c(=O)c4ccccc34)[nH]c2cc1C(F)(F)F [Compound 127, 2-[4-[[5-ethoxy-6-(trifluoromethyl)-1H-benzimidazol-2-yl]methyl]-1-oxo-phthalazin-2-yl]acetic acid] | 19800 | 61.7 | 479 | 8.27 | 3500 | 13.6 |
| O=C(O)CN1CCC(n2nc(Cc3cn4cc(OCC5CC5)c(Cl)cc4n3)c3ccccc3c2=O)C1 (stereo not drawn) [Compound 87, 2-[3-[4-[[7-chloro-6-(cyclopropylmethoxy)imidazo[1,2-a]pyridin-2-yl]methyl]-1-oxo-phthalazin-2-yl]pyrrolidin-1-yl]acetic acid] | 19800 | 324 | 178 | 149 | ≥ 19800 | 283 |
| CC(C)(C)NC(=O)Cn1nc(Cn2cc3cc(OCC4CC4)c(Cl)cc3n2)c2ccccc2c1=O [Compound 144, N-tert-butyl-2-[4-[[6-chloro-5-(cyclopropylmethoxy)indazol-2-yl]methyl]-1-oxo-phthalazin-2-yl]acetamide] | 19800 | 3400 | 226 | 191 | ≥ 19800 | 511 |
| O=C(O)c1cn(Cc2nc3cc(OCC4CC4)c(Cl)cc3[nH]2)c2ccccc2c1=O [Compound 90, 1-[[6-chloro-5-(cyclopropylmethoxy)-1H-benzimidazol-2-yl]methyl]-4-oxo-quinoline-3-carboxylic acid] | 6610 | 29.1 | 13.3 | 5.29 | 4580 | 1.11 |
| O=C(Cc1nn(Cc2nc3cc(OCC(F)F)c(Cl)cc3[nH]2)c2ccccc2c1=O)N1CCOCC1 [Compound 159, 1-[6-Chloro-5-(2,2-difluoro-ethoxy)-1H-benzoimidazol-2-ylmethyl]-3-(2-morpholin-4-yl-2-oxo-ethyl)-1H-cinnolin-4-one] | 19800 | 14 | 30.7 | 9.25 | ≥ 19800 | 1.02 |
| O=C(Cc1nn(Cc2nc3cc(OCC(F)F)c(F)cc3[nH]2)c2ccccc2c1=O)N1CCOCC1 [Compound 50, 1-[5-(2,2-Difluoro-ethoxy)-6-fluoro-1H-benzoimidazol-2-ylmethyl]-3-(2-morpholin-4-yl-2-oxo-ethyl)-1H-cinnolin-4-one] | 19800 | 365 | 267 | 195 | ≥ 19800 | 246 |
| COCCOc1cc2nc(Cc3nn(CC(=O)N4CCOCC4)c(=O)c4ccccc34)[nH]c2cc1C#N [Compound 51, 6-(2-methoxyethoxy)-2-[[3-(2-morpholino-2-oxo-ethyl)-4-oxo-phthalazin-1-yl]methyl]-3H-benzimidazole-5-carbonitrile] | 19800 | 291 | 366 | 77.3 | ≥ 19800 | 177 |
| COc1cc2[nH]c(Cc3nn(CC(=O)O)c(=O)c4c3CCCC4)nc2cc1Cl [Compound 120, 2-[4-[(5-chloro-6-methoxy-1H-benzimidazol-2-yl)methyl]-1-oxo-5,6,7,8-tetrahydrophthalazin-2-yl]acetic acid] | 19800 | 822 | 392 | 57 | ≥ 19800 | 96.7 |
| CC1(C)CN(C(=O)Cn2nc(Cc3nc4cc(OCC(F)F)c(C#N)cc4[nH]3)c3ccccc3c2=O)CCO1 [Compound 227, 6-(2,2-difluoroethoxy)-2-[[3-[2-(2,2-dimethylmorpholin-4-yl)-2-oxo-ethyl]-4-oxo-phthalazin-1-yl]methyl]-3H-benzimidazole-5-carbonitrile] | 19800 | 84.2 | 82.1 | 14.5 | ≥ 19800 | 16.9 |
| CS(=O)(=O)NC(=O)Cn1nc(Cc2nc3cc(OCC4CC4)c(Cl)cc3[nH]2)c2ccccc2c1=O [Compound 242, 2-[4-[[6-chloro-5-(cyclopropylmethoxy)-1H-benzimidazol-2-yl]methyl]-1-oxo-phthalazin-2-yl]-N-methylsulfonyl-acetamide] | 19800 | 111 | 299 | 19.2 | 560 | 77.3 |
| CC(F)(F)COc1cc2nc(Cc3nn(CC(=O)N4CCOCC4)c(=O)c4ccccc34)[nH]c2cc1C#N [Compound 52, 6-(2,2-difluoropropoxy)-2-[[3-(2-morpholino-2-oxo-ethyl)-4-oxo-phthalazin-1-yl]methyl]-3H-benzimidazole-5-carbonitrile] | 19800 | 50 | 105 | 11.6 | ≥ 19800 | 46.7 |
| CC(C(=O)O)n1nc(Cn2cc3cc(OCC4CC4)c(Cl)cc3n2)c2c(c1=O)CCCC2 (stereo not drawn) [Compound 93, 2-[4-[[6-chloro-5-(cyclopropylmethoxy)indazol-2-yl]methyl]-1-oxo-5,6,7,8-tetrahydrophthalazin-2-yl]propanoic acid] | 19800 | 22.8 | 22.4 | 8.99 | ≥ 19800 | 3.04 |
| NC(=O)c1ccc2c(=O)n(CC(=O)N3CCOCC3)nc(Cc3nc4cc(OCC(F)F)c(Cl)cc4[nH]3)c2c1 [compound 12, 4-[[6-chloro-5-(2,2-difluoro-ethoxy)-1H-benzimidazol-2-yl]methyl]-2-(2-morpholino-2-oxo-ethyl)-1-oxo-phthalazine-6-carboxamide] | 19800 | 1100 | 582 | 276 | ≥ 19800 | 143 |
| O=C(O)Cn1nc(Cc2nc3cc(Cl)c(OCC(F)F)cc3[nH]2)c2c(c1=O)CCCC2 [Compound 119, 2-[4-[[5-chloro-6-(2,2-difluoroethoxy)-1H-benzimidazol-2-yl]methyl]-1-oxo-5,6,7,8-tetrahydrophthalazin-2-yl]acetic acid] | 19800 | 189 | 23.3 | 6.58 | ≥ 19800 | 11.3 |
